Test results from doi:10.1101/2021.04.29.441652v1 (biorxiv, 2021).

Molecular target: human σ2 receptor (TMEM97) (Homo sapiens, UniProt Q5BJF2)
Assay: biochemical
Type: Expi293 membranes
Conditions: read-out: % of control remaining

Chain of human σ2 receptor (TMEM97) (Q5BJF2 whole entry): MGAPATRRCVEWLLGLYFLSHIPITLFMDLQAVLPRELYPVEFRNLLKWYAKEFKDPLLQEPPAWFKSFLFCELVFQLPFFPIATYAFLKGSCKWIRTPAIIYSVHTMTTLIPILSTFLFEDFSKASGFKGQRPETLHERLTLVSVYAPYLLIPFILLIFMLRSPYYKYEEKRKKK

SMILES	remaining activity at 1 µM
Cc1cc([N+](=O)[O-])ccc1NC(=O)CN1CCC[C@@H]([C@@H]2CCCCO2)C1 [ZINC000595790972]	96.1%
CCc1c(C(=O)N[C@@H](C)C2CCN(C)CC2)cnn1-c1ccccc1 [ZINC000603324806]	65.5%
CC(C)Cc1ccc(C(=O)Nc2ccc(OCCN3CCN(C)CC3)cc2)cc1 [ZINC000608224751]	75.6%
COC(=O)[C@H](NCC(C)(C)N1CCc2ccccc2C1)c1ccccc1 [ZINC000609803478]	49.8%
COC(=O)[C@H](c1cccc(Cl)c1Cl)N1CCC[C@H](N2CCCC2)C1 [ZINC000611661177]	19.1%
CCN1CC[C@H](N(CC)C(=O)c2cccc(C(F)(F)F)n2)C1 [ZINC000617924178]	126%
CN(C)S(=O)(=O)N(C)CC(=O)N[C@@H]1COc2cc(F)ccc2C1 [ZINC000618647685]	91.7%
CCCN1CCC[C@H]1C(=O)NCc1cnccc1C(F)(F)F [ZINC000621202771]	61.4%
CC(C)(CO)N1CCN(c2nc3c(Br)cccc3s2)CC1 [ZINC000621267824]	33.4%
C[C@@H]1CCCC[C@H]1OCCNC(=O)NC[C@H]1CCCCN(C)C1 [ZINC000623468108]	84.9%
CC(C)CC[C@@H](CO)N[C@H](C)c1nc2c(s1)CCCC2 [ZINC000624110289]	49.3%
COCC(COC)N1CCN(S(=O)(=O)c2cnc(C)n2C)CC1 [ZINC000625246444]	105%
O=C([C@@H]1CCCN1c1ncccn1)N1CC[C@@H](N2CC[C@H](O)C2)C1 [ZINC000627254962]	114%
COc1ccccc1C[C@@](C)(CO)NCc1ccc2c(c1)ncn2C [ZINC000631236280]	92%
O=C(Nc1cscc1Cl)C(=O)N[C@@H]1CCN(CC2CC2)C1 [ZINC000635049325]	53.2%
Clc1ccc(O[C@H]2CCN(C3CCCC3)C2)cc1 [ZINC000645238909]	35.5%
C[C@@H](Cc1c(Cl)cccc1Cl)NC(=O)c1cn(C[C@@H]2CCCN2)nn1 [ZINC000646273308]	106%
O=C(CN1CCC[C@@H]1[C@@H]1CCC[C@H]1O)N1CCOC[C@H]1C1CC1 [ZINC000649929688]	96.5%
O=C(Nc1ccc2ncnn2c1)[C@]1(O)CCN(Cc2ccccc2)C1 [ZINC000655168559]	97.6%
Cc1cc(F)c(CN[C@@H]2CCN(c3ccccc3C(N)=O)C2)c(Cl)c1 [ZINC000656499190]	71.5%

SMILES	remaining activity at 1 µM
OC[C@]1(CNC2=NCCCN2)CCc2ccccc21 [ZINC000656508398]	55.9%
C[C@@H](Cc1ccc2c(c1)CCCC2)N[C@H]1CCN(C2CCOCC2)C1=O [ZINC000657922756]	1.7%
C[C@H](Cn1ncc2ccccc2c1=O)N[C@@H](C)Cc1ccc2c(c1)CCCC2 [ZINC000657934399]	13.3%
C[C@H](Cn1cncn1)N[C@@H]1CCN(c2ccccc2C(F)(F)F)C1 [ZINC000657977970]	83.1%
COc1ccc([C@@H](C)N[C@H](CO)C2CCC2)cc1Br [ZINC000658086473]	42.3%
CCOc1cc2c(cc1NC(=O)C[C@@H]1NCc3ccccc31)O[C@@H](C)C2 [ZINC000659267272]	101%
CNC[C@H](C)NC(=O)C(=O)NCc1ccc(N2CCO[C@@H](C)C2)nc1 [ZINC000659691253]	82.1%
O=C(CN1CC2CC1(c1ccccc1)C2)NC[C@@H]1CCCO1 [ZINC000662335416]	122%
CN(CC(=O)Nc1c(Cl)cccc1Cl)C[C@@H]1CC1(C)C [ZINC000662345330]	42.3%
COc1cc(NC(=O)CC2(N)CC2)cc(OC)c1Br [ZINC000662800454]	106%
O=C(N[C@H]1CCOC2(CCC2)C1)N1CCC(N2CC[C@@H](O)C2)CC1 [ZINC000664479370]	103%
CN(C)Cc1ccc(-c2cscc2CCO)cc1F [ZINC000665143541]	108%
O=C(Nc1cnn(CC2CC2)c1)C(=O)N1CCC[C@H]([C@@H]2CCNC2)C1 [ZINC000667676804]	94.4%
Cc1ccccc1-n1cc(CN2CCC[C@@H]([C@H]3CCCCO3)C2)nn1 [ZINC000668631550]	58.4%
OC[C@H](N[C@H]1Cc2[nH]c3ccccc3c2C1)C1CCCCC1 [ZINC000669616349]	56.6%
C[C@@H](NC(=O)C(=O)NCCCN1CCC[C@H](C(N)=O)C1)C1CCC1 [ZINC000671981913]	106%
C[C@H]1[C@H](N2CCCC2)CCN1Cc1cn2cc(Br)ccc2n1 [ZINC000672564445]	69.7%
O=C(NCCCC1CC1)C(=O)NC1CCN([C@H]2CCC[C@@H]2O)CC1 [ZINC000673584800]	110%
Fc1cc(Br)cnc1N1CCN(CCc2cccs2)CC1 [ZINC000681377109]	114%

The remaining lines, values ahead:

remaining activity at 1 µM	SMILES
63.8%	Clc1ccccc1Cn1cc(CN2CCC[C@@H]2c2ccc[nH]2)cn1 [ZINC000676461131]
55.7%	c1ccc(-n2cncn2)c(CN2CCC[C@H](N3CCCC3)CC2)c1 [ZINC000678272880]
114%	CN1CC[C@H]2CCN(C(=O)C(=O)Nc3cnc4c(c3)COCC4)[C@@H]2C1 [ZINC000679371269]
103%	COCCOCc1cccc(NC(=O)NCC2(C)CCN(C)CC2)c1 [ZINC000679555790]
108%	CC[C@@]1(NCC(=O)Nc2ccc(C)cc2Br)CCOC1 [ZINC000683045155]
99.8%	Clc1ccccc1Cn1cc(CNc2nc3ccccc3[nH]2)cn1 [ZINC000683721842]
70.6%	CCN(CC)c1ncc(CN2CC(C(C)C)C2)s1 [ZINC000684407814]
17.3%	CC(C)C1CN(C[C@@H](O)COC(c2ccccc2)c2ccccc2)C1 [ZINC000684607185]
51.3%	Brc1ccccc1-n1cc(CN2CC[C@@H]3CCC[C@@H]32)nn1 [ZINC000685844120]
79.5%	CCN1CCN(CCNC(=S)N[C@H](C)c2cccs2)CC1 [ZINC000726467110]
118%	O[C@@H](CN1CCN(c2ccc(-c3nn[nH]n3)cc2F)CC1)C1CC1 [ZINC000738383044]
23.7%	O[C@@H](CN1CC[C@@H](CSc2ccccc2)C1)c1c(F)cccc1F [ZINC000743860012]
108%	CN(C(=O)CCn1cnc2c1c(=O)n(C)c(=O)n2C)c1cn[nH]c1 [ZINC000748395040]
84.1%	Cc1nn(Cc2ccc(F)cc2)c(Cl)c1CNC[C@@]1(O)CCN(C)C1 [ZINC000762555244]
63.2%	Cc1ccc2c(c1)CC[C@H]2N[C@@H](CO)Cc1ccccc1 [ZINC000766031584]
91.7%	C[C@H](CCN1C(=O)c2ccccc2C1=O)NC[C@@H](O)c1c(F)cccc1F [ZINC000769519341]
83.3%	O=C(NC1CCCCC1)C(=O)NC1CCN(C[C@H]2CCCO2)CC1 [ZINC000774469834]
39%	COc1ccc([C@H]2CCN(C[C@@H](O)c3ccc(F)cc3Cl)C2)cc1 [ZINC000775588849]
108%	O=C1NCCC[C@@H]1N1CC[C@@](O)(c2ccc(F)cc2)C1 [ZINC000777733869]
3.8%	O=[N+]([O-])c1cccc([C@H](O)CN2CC(Cc3cccc(C(F)(F)F)c3)C2)c1 [ZINC000792998860]

remaining activity at 1 µM	SMILES
37.6%	O[C@H](CN[C@@H]1CCc2ccccc2OC1)COc1c(Cl)cccc1Cl [ZINC000801571276]
89.7%	Cc1ccc(C2=NO[C@@H](CNC(=O)N3CC[C@H](N4CCCC4)C3)C2)cc1C [ZINC000802379169]
90%	O=C(NC[C@@H]1CN2CCC[C@@H]2CO1)C(=O)N[C@@H]1CC[C@H]2CCC[C@@H]2C1 [ZINC000804054066]
133%	COc1ccc(C(=O)N2CC[C@H](N3CCCC3)[C@@H]2C)nc1Cl [ZINC000805335094]
105%	CN1CCN(CCNC(=O)C(=O)NC[C@H]2CCC=CO2)CC1(C)C [ZINC000805503179]
106%	CC[C@@H](CN1CCCC1)NC(=O)C(=O)NC1COC(C)(C)OC1 [ZINC000806327364]
99.4%	Cc1ccc(N2CCN(C(=O)C(=O)N[C@@H]3CN(C4CC4)C[C@@H]3C)CC2)cc1 [ZINC000809405032]
108%	C[C@H](NC(=O)c1ccc2[nH]c(=O)c(=O)[nH]c2c1)[C@H](O)c1ccccc1 [ZINC000813849560]
17.6%	CC(C)(C)OC(=O)N1CCC[C@@](C)(CNC[C@@H](O)c2c(F)cccc2F)C1 [ZINC000819225653]
104%	C[C@H]1[C@H](N(C)C)CCN1c1snc(Cl)c1C#N [ZINC000820594289]
104%	O=C([C@H](O)c1cccc([N+](=O)[O-])c1)N1CC[C@H](N2CCCC2)C1 [ZINC000825615260]
78.8%	CS[C@@H]1CCN(C[C@@H](O)c2ccccc2C(F)(F)F)C1 [ZINC000830877226]
28.7%	C[C@@H]1CCC[C@H](CCN2CCC([C@H](O)c3ncc[nH]3)CC2)C1 [ZINC000839577413]
16.2%	OC[C@@H](CNC[C@H](O)c1ccc(F)c(Br)c1)CC1CCCC1 [ZINC000843092160]
43.6%	Fc1ccc(C2OCCO2)c(Cl)c1CNC1CC2(CCC2)C1 [ZINC000846106280]
59.3%	CN1CC[C@]2(CCN(C(=O)C(=O)Nc3cccc4nonc34)C2)C1 [ZINC000847525041]
8.7%	C[C@H]1CN/C(=N/CCCc2c(Cl)cccc2Cl)N1 [ZINC000849049798]
136%	CON(C)CCNC(=O)C(=O)Nc1ccc2c(c1)C(=O)N(C)C2=O [ZINC000850493342]
115%	Fc1ccc(NC(=S)NC2CCN([C@H]3CCOC3)CC2)cc1 [ZINC000853031922]
142%	C[C@H](Nc1nc(N)nc(N)n1)c1ccccc1C(F)(F)F [ZINC000858362097]
